Reference: patent US12643867B2, “Compositions and uses thereof” (University of Virginia Patent Foundation, priority 2017, dated 2026)

Legend:
Gamma (DGK gamma) = Gamma (DGK gamma) (Homo sapiens, UniProt P49619); assay: DGK isoform % Activity screen; assay type: biochemical
[1] = tested on: MARK3/MARK4 (MAP/microtubule affinity-regulating kinase 3); assay: SILAC LC-MS ATP acyl phosphate probe competition, native kinases in HEK293T; assay type: binding, Homo sapiens (Human); details: site Lys1; ATP 1 mM; Ketanserin, Ritanserin 100 μM; RF001 1 mM
Method: (§1) Proteomes were diluted to 2 mg/ml in kinase buffer. The light and heavy proteomes (0.5 mg, 250 μL total reaction volume) were pre-treated with vehicle or compound, respectively (5 μL, DMSO (light) or 50× stock in DMSO (heavy)), mixed gently, and incubated at 25° C. for 30 min. […] After incubation, matched light and heavy proteomes were transferred and mixed in a 1:1 ratio in a two-dram vial containing 4:1:3 MeOH/CHCl3/H2O (2 mL MeOH, 500 AL CHCl3, 1.5 mL H2O) for extraction of proteins to remove excess probe, quickly vortexed, and centrifuged at 1,400×g for 3 min to pellet protein. Organic and aqueous layers were removed using a Pasteur pipette, and the protein pellet was transferred to a screw-top tube in 600 μL MeOH. A second extraction was performed by adding CHCl3 (150 μL) and H2O (600 μL) to each sample, vortexed, and centrifuged at 1,400×g for 3 min to pellet protein. Organic and aqueous layers were removed by pipetting. MeOH added to pellet (600 μL) and pellets were re-suspended by sonication (3×1 sec pulse, 20% amplitude) for a final extraction. Samples were then centrifuged at 17,000×g for 5 min to pellet protein and MeOH was removed by pipetting. The pellets were re-suspended in 10 M urea/25 mM ammonium bicarbonate ([…]), brought to a final volume of 1 mL with 25 mM ammonium bicarbonate, reduced with 10 mM DTT for 15 min at 65° C. allowed to cool, and then alkylated with 40 mM iodoacetamide for 30 min at 25° C. in the dark. To desalt the samples, each was transferred to a two-dram glass vial, and to the vial 4:1:2 MeOH/CHCl3/H2O (2 mL MeOH, 500 AL CHCl3, 1 mL H2O) was added. The vials were vortexed quickly, spun at 1.400×g for 3 min to pellet protein, and aqueous and organic layers were removed using a Pasteur pipette. The resulting protein pellet was transferred to a screw-top tube in 600 μL MeOH, and then CHCl3 (150 μL) and HO (600 μL) were added to extract protein a second time. The samples were vortexed quickly, centrifuged at 1,400×g to pellet protein, and the aqueous and organic layers were removed by pipetting. Resulting protein pellet was suspended in MeOH (600 μL) via sonication (3×1 sec pulse, 20% amplitude), centrifuged at 17,000×g for 5 min to pellet protein, and MeOH removed by pipetting. Protein pellets were then re-suspended in 25 mM ammonium bicarbonate (500 μL) and digested with 7.5 μg Trypsin/Lys-C(Promega, 15 μL, 0.5 μg/μL) for 3 h at 37° C. Avidin-agarose beads (Thermo Scientific Pierce, 100 AL aliquot per sample) were washed three times by adding 10 mL DPBS, centrifuged at 1,400×g for 1 min, and decanting. This wash step was repeated for a total of 3 times. Digested protein samples were mixed with washed avidin beads (100 μL) and brought to a volume of 5.5 mL with DPBS in a 15 mL conical and rotated for 1 h to enrich samples for the covalent desthiobiotin modification. The beads were washed with 25 mM ammonium bicarbonate (3× with 10 mL, centrifuge at 1,400×g for 3 min, decant) and then H2O (3× with 10 mL, centrifuge at 1,400×g for 3 min, decant). Washed beads were then transferred to a low-bind microfuge tube, centrifuged at 1,400×g for 3 min, allowed to rest for 1 min to settle beads, and then excess H2O was removed carefully using a gel-loading pipette tip. To elute peptides, 100 μL of elution buffer (50% acetonitrile, ACN; 0.1% formic acid) was added to each sample and incubated for 3 min. Beads were spun down at 1.400×g for 3 min, allowed to rest for 1 min to settle beads, and then 75 μL of peptide-containing supernatant was removed carefully using a gel-loading pipette tip and transferred to a new low bind centrifuge tube. This step was repeated two more times with 75 μL of elution buffer and all eluent were collected into the same centrifuge tube (˜225 μL total). Peptides were dried on a speed vacuum, resulting peptide samples acidified in 5% (v/v) formic acid, and stored at −80° C. until analysis.
(§2) The peptide samples were analyzed by liquid chromatography-mass spectrometry. […]

[2] = tested on: KS6A4/KS6A5 (Ribosomal protein S6 kinase alpha 4); assay: as above; assay type: binding, Homo sapiens (Human); details: site ATP Loop; ATP 1 mM; Ketanserin, Ritanserin 100 μM; RF001 1 mM
Method: as §1, §2

[3] = tested on: STK3/STK4 (Serine/threonine-protein kinase 3); assay: as above; assay type: binding, Homo sapiens (Human); details: site Lys2; ATP 1 mM; Ketanserin, Ritanserin 100 μM; RF001 1 mM
Method: as §1, §2

[4] = tested on: MP2K1/MP2K2 (Dual specificity mitogen-activated protein kinase kinase 1); assay: as above; assay type: binding, Homo sapiens (Human); details: site Lys2; ATP 1 mM; Ketanserin, Ritanserin 100 μM; RF001 1 mM
Method: as §1, §2

[5] = tested on: M4K4/MINK1/TNIK (Mitogen-activated protein kinase kinase kinase kinase 4); assay: as above; assay type: binding, Homo sapiens (Human); details: site Lys2; ATP 1 mM; Ketanserin, Ritanserin 100 μM; RF001 1 mM
Method: as §1, §2

[6] = tested on: AAPK1/AAPK2 (5′-AMP-activated protein kinase catalytic subunit alpha-1); assay: as above; assay type: binding, Homo sapiens (Human); details: site Lys2; ATP 1 mM; Ketanserin, Ritanserin 100 μM; RF001 1 mM
Method: as §1, §2

[7] = tested on: KS6A1/KS6A2/KS6A3 (Ribosomal protein S6 kinase alpha 1); assay: as above; assay type: binding, Homo sapiens (Human); details: site Lys2; ATP 1 mM; Ketanserin, Ritanserin 100 μM; RF001 1 mM
Method: as §1, §2

[8] = biological target: Alpha (DGK alpha; only in reference sheet cells) (Rattus norvegicus, UniProt P51556); assay: DGK isoform % Activity screen; assay type: biochemical; details: for activity at 100 µM: read-out: 100 uM % Activity (section without isoform head; Alpha)
Sequence of Alpha (DGK alpha; only in reference sheet cells) (P51556 whole entry, canonical isoform): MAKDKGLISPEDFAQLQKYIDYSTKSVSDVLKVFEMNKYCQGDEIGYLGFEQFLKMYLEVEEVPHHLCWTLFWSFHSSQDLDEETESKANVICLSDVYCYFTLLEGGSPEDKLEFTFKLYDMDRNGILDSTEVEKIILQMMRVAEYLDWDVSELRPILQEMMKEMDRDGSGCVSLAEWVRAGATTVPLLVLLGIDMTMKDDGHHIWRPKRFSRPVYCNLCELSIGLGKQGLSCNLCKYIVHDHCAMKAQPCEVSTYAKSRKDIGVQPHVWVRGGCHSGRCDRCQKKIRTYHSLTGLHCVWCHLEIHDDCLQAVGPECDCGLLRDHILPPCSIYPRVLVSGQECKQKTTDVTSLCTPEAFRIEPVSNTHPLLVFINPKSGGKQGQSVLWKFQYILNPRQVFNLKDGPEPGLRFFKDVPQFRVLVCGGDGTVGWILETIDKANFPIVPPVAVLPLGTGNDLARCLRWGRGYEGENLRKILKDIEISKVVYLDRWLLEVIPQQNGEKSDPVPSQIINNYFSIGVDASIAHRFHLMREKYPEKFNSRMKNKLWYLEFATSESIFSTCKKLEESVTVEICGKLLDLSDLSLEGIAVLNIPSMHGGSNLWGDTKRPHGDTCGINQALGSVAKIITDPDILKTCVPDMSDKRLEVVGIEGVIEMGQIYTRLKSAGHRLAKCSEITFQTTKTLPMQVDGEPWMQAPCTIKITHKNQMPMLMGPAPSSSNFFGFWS

[9] = tested on: recombinant DGKs and native kinases in HEK293T proteomes; assay: Quantitative chemical proteomics, summary over kinases; assay type: binding; details: for number of kinase targets that show SR≥2: recombinant DGKs and native kinases
Method: as §1, §2

Zeta (DGK zeta) = Zeta (DGK zeta) (Homo sapiens, UniProt Q13574); assay: DGK isoform % Activity screen; assay type: biochemical
Sequence of Zeta (DGK zeta) (Q13574 whole entry, canonical isoform): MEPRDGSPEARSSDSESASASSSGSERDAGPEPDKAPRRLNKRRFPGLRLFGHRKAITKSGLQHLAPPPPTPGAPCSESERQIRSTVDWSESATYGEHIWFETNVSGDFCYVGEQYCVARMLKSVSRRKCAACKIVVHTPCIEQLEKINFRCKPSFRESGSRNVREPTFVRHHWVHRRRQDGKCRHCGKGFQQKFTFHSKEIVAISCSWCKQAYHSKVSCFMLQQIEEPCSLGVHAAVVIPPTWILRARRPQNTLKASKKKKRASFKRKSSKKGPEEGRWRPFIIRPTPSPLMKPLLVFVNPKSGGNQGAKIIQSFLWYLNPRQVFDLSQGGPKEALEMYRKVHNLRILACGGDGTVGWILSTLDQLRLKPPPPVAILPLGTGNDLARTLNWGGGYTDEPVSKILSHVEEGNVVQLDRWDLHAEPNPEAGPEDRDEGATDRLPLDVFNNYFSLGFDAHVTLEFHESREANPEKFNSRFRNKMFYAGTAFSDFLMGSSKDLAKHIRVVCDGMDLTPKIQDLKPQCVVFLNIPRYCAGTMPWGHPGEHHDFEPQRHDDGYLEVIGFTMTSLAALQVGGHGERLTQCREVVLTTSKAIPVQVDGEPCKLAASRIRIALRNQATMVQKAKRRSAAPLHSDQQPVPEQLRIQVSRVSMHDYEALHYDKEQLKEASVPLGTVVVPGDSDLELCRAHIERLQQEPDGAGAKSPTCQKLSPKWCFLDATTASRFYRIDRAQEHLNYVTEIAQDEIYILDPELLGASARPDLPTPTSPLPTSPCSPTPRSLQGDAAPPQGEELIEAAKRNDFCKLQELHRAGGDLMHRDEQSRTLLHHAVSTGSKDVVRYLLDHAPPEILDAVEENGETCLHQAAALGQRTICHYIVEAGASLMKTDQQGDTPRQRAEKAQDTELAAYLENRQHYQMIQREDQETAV

[10] = tested on: M3K2/M3K3 (Mitogen-activated protein kinase kinase kinase 2); assay: SILAC LC-MS ATP acyl phosphate probe competition, native kinases in HEK293T; assay type: binding, Homo sapiens; details: site Lys2; ATP 1 mM; Ketanserin, Ritanserin 100 μM; RF001 1 mM
Method: Proteomes were diluted to 2 mg/ml in kinase buffer. The light and heavy proteomes (0.5 mg, 250 μL total reaction volume) were pre-treated with vehicle or compound, respectively (5 μL, DMSO (light) or 50× stock in DMSO (heavy)), mixed gently, and incubated at 25° C. for 30 min. […] After incubation, matched light and heavy proteomes were transferred and mixed in a 1:1 ratio in a two-dram vial containing 4:1:3 MeOH/CHCl3/H2O (2 mL MeOH, 500 AL CHCl3, 1.5 mL H2O) for extraction of proteins to remove excess probe, quickly vortexed, and centrifuged at 1,400×g for 3 min to pellet protein. Organic and aqueous layers were removed using a Pasteur pipette, and the protein pellet was transferred to a screw-top tube in 600 μL MeOH. A second extraction was performed by adding CHCl3 (150 μL) and H2O (600 μL) to each sample, vortexed, and centrifuged at 1,400×g for 3 min to pellet protein. Organic and aqueous layers were removed by pipetting. MeOH added to pellet (600 μL) and pellets were re-suspended by sonication (3×1 sec pulse, 20% amplitude) for a final extraction. Samples were then centrifuged at 17,000×g for 5 min to pellet protein and MeOH was removed by pipetting. The pellets were re-suspended in 10 M urea/25 mM ammonium bicarbonate ([…]), brought to a final volume of 1 mL with 25 mM ammonium bicarbonate, reduced with 10 mM DTT for 15 min at 65° C. allowed to cool, and then alkylated with 40 mM iodoacetamide for 30 min at 25° C. in the dark. To desalt the samples, each was transferred to a two-dram glass vial, and to the vial 4:1:2 MeOH/CHCl3/H2O (2 mL MeOH, 500 AL CHCl3, 1 mL H2O) was added. The vials were vortexed quickly, spun at 1.400×g for 3 min to pellet protein, and aqueous and organic layers were removed using a Pasteur pipette. The resulting protein pellet was transferred to a screw-top tube in 600 μL MeOH, and then CHCl3 (150 μL) and HO (600 μL) were added to extract protein a second time. […]
as §2

Sequence of Gamma (DGK gamma) (P49619 whole entry, canonical isoform): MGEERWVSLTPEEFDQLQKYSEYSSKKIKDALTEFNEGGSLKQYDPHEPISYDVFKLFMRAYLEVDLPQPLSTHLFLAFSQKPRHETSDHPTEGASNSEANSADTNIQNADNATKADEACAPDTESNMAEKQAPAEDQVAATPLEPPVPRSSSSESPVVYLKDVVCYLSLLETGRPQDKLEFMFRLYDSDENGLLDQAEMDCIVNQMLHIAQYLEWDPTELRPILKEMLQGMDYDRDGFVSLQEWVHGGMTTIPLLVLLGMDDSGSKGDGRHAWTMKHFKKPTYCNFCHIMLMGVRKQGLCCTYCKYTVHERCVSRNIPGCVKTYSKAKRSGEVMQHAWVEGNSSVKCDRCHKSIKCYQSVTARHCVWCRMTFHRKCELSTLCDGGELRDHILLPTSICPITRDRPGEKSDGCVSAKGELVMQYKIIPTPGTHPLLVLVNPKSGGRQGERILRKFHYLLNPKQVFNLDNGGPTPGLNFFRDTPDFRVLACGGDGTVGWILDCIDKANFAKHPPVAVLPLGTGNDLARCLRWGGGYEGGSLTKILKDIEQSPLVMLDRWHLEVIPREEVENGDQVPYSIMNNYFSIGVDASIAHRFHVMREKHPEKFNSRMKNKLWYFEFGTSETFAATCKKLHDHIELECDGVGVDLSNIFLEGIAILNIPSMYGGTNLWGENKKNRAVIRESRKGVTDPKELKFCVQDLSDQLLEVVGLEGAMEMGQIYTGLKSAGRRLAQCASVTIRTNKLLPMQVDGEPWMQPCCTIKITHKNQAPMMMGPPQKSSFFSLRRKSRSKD

activity at 100 µM (Gamma (DGK gamma)) [%] | SILAC ratio, MARK3/MARK4 probe-modified peptide [1] | SILAC ratio, KS6A4/KS6A5 probe-modified peptide [2] | SILAC ratio, STK3/STK4 probe-modified peptide [3] | SILAC ratio, MP2K1/MP2K2 probe-modified peptide [4] | SILAC ratio, M4K4/MINK1/TNIK probe-modified peptide [5] | SILAC ratio, AAPK1/AAPK2 probe-modified peptide [6] | SILAC ratio, KS6A1/KS6A2/KS6A3 probe-modified peptide [7] | activity at 100 µM [8] [%] | activity at 100 µM (Zeta (DGK zeta)) [%] | SILAC ratio, M3K2/M3K3 probe-modified peptide [10] | activity at 1000 µM (Gamma (DGK gamma); read-out: 1 mM % Activity, Gamma) [%] | activity at 1000 µM ([8]; read-out: 1 mM % Activity (section without isoform head; Alpha)) [%] | kinase targets with potent activity (SR≥5) ([9]; all detectable kinases) | activity at 1000 µM (Zeta (DGK zeta); read-out: 1 mM % Activity, Zeta) [%] | SMILES | SILAC ratio at all binding sites detected, other DGK isoforms ([9]; 100 μM) | number of kinase targets that show SR≥2 [9] | average SILAC ratio at all detected probe-modified sites of other DGK subtypes ([9]; 1 mM) | competition at probe-binding sites ([9]; 100 μM)
82 | 1.1 | 1.1 | 0.9 | 0.9 | 1.1 | 1.1 | 1.2 | 75 | 80 | 1.0 | 5 | 0 | a single kinase target | 0 | Fc1ccc(C(=C2CCNCC2)c2ccc(F)cc2)cc1 [RF001, 4-(Bis(4-fluorophenyl)methylene) piperidine] |  | 3 | ~1 | 
24 | 1.4 | 1.3 | 1.2 | 1.3 | 1.3 | 1.4 | 1.4 | 99 | 90 | 1.1 |  |  |  |  | O=C(c1ccc(F)cc1)C1CCN(CCn2c(=O)[nH]c3ccccc3c2=O)CC1 [Ketanserin] |  |  |  | negligible competition at all probe-binding sites

SMILES | activity at 100 µM (Gamma (DGK gamma)) [%] | SILAC ratio, MARK3/MARK4 probe-modified peptide [1] | SILAC ratio, KS6A4/KS6A5 probe-modified peptide [2] | SILAC ratio, STK3/STK4 probe-modified peptide [3] | SILAC ratio, MP2K1/MP2K2 probe-modified peptide [4] | SILAC ratio, M4K4/MINK1/TNIK probe-modified peptide [5] | SILAC ratio, AAPK1/AAPK2 probe-modified peptide [6] | SILAC ratio, KS6A1/KS6A2/KS6A3 probe-modified peptide [7] | activity at 100 µM [8] [%] | activity at 100 µM (Zeta (DGK zeta)) [%] | SILAC ratio, M3K2/M3K3 probe-modified peptide [10] | activity at 1000 µM (Gamma (DGK gamma); read-out: 1 mM % Activity, Gamma) [%] | activity at 1000 µM ([8]; read-out: 1 mM % Activity (section without isoform head; Alpha)) [%] | kinase targets with potent activity (SR≥5) ([9]; all detectable kinases) | activity at 1000 µM (Zeta (DGK zeta); read-out: 1 mM % Activity, Zeta) [%] | SILAC ratio at all binding sites detected, other DGK isoforms ([9]; 100 μM) | number of kinase targets that show SR≥2 [9] | average SILAC ratio at all detected probe-modified sites of other DGK subtypes ([9]; 1 mM) | competition at probe-binding sites ([9]; 100 μM)
Cc1nc2sccn2c(=O)c1CCN1CCC(=C(c2ccc(F)cc2)c2ccc(F)cc2)CC1 [Ritanserin] | 55 | 2.0 | 2.2 | 1.6 | 1.9 | 1.8 | 2.4 | 2.0 | 52 | 86 | 1.2 |  |  |  |  | < 2 | 25 |  | 
